Test results as given in US6713260B2, “Methods of identifying compounds that bind to target species under isothermal denaturing conditions” (Pharmacia & Upjohn Company, priority 1999, dated 2004).
Blank lines part the entries; values can stand above or below the compound they belong to.

Assays:
Stromelysin [1] = molecular target: T1, Stromelysin (Homo sapiens, UniProt P08254); assay: Isothermal denaturation of stromelysin monitored by SYPRO Orange fluorescence; assay type: binding; conditions: 75° C.
T1 construct: made in house
Description: Time-Dependency of the isothermal denaturation of Stromelysin monitored by SYPRO Orange Fluorescence. […] The data for the control reaction were analyzed using Equation 4, and those for the inhibited reactions with Equation 11. […] The solid lines represent the theoretical fits to the experimental data points.
The time-dependencies of the fluorescence of extrinsic dyes during isothermal denaturation were monitored as follows. The test dye was added to a stirred cuvette containing 2 milliliters (mL) of buffer that had been thermally preequilibrated at the desired temperature. A dye baseline was recorded for 45 seconds and the denaturation reaction initiated by the addition of a small aliquot of the protein stock solution. In this way, the protein reached the temperature of denaturation virtually instantaneously. In separate experiments, the protein was kept at the denaturation temperature in the absence of dye and the reporter molecule added at the end of the reaction. In the latter experiments, the fluorescence increase associated with the addition of dye was always instantaneous.
Two parameters derived from the fluorescence kinetic curves measure the rate of denaturation, namely, the slope at the inflection point, and the first-order rate constant.

Stromelysin [2] = molecular target: T1, Stromelysin; assay: Isothermal denaturation of stromelysin monitored by UV absorbance (hyperchromicity at 280 nm); assay type: binding; conditions: 75° C.; absorbance at 280 nm
Description: Sci., 7; 2118-2126 (1998).
UV absorbance was measured using a Perkin-Elmer Lambda 40 UV-Vis dual-beam spectrophotometer (Perkin-Elmer Corp. Norwalk, Conn.). A capped 1.0 cm pathlength quartz cuvette filled with buffer was placed in the reference beam. In the sample beam, a capped 1.0 cm path length quartz cuvette containing 1.5 mL of degassed buffer or buffer plus ligand—less the volume of protein solution to be added—was placed in a thermostated cell holder and equilibrated at the temperature of isothermal denaturation. The temperature was maintained within 0.1° C. using a Neslab Exacal EX200 circulating water bath (Neslab Instruments, Inc. Portsmouth, N.H.). A 1-5 μL aliquot of the protein stock solution was added to the cuvette containing buffer or buffer plus ligand to yield a final volume of 1.5 mL and protein concentration near 0.5 μM. The cuvette was recapped and absorbance at 280 nm was measured every 1 second for up to 30 minutes with a bandwidth of 2 nm and response of 0.5 second. For each protein, the effects of several ligand concentrations were examined ranging from about 0.5 μM to about 400 μM. Cuvettes were thoroughly cleaned as described above with nitric acid and with 10% methanol and rinsed with distilled water and ethanol between experiments.
Absorbance. […]

uridylate kinase (UK) = molecular target: T2, uridylate kinase (UK) (Staphylococcus aureus, UniProt Q2FZ22); assay: Uridylate kinase activity assay at 25° C.; assay type: biochemical, S. aureus; conditions: read-out: apparent Kd obtained from an activity assay
T2 construct: 6-his tag (implied by Ni-NTA purification); made in house
T2 sequence (Q2FZ22 1-240): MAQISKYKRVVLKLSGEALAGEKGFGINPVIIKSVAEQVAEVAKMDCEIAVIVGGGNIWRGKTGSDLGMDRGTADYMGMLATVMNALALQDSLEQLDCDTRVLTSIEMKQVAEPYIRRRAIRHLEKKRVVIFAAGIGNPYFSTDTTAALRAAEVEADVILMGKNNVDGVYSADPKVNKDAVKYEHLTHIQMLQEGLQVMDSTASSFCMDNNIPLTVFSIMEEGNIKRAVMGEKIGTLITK

[3] = molecular target: T3, S. aureus uridylate kinase (UK) (Staphylococcus aureus, UniProt Q2FZ22); assay: Robotic HTS isothermal denaturation assay, uridylate kinase, Nano Orange
T3 sequence (Q2FZ22 1-240): T2 sequence (Q2FZ22 1-240)
Description: Temperature was controlled with a circulating waterbath.
Validation of Robotic HTS Assay.

[4] = molecular target: T4, S. aureus thymidylate kinase (TK) (Staphylococcus aureus, UniProt P65248); assay: biochemical; assay type: binding
T4 construct: 6-his tag; made in house

T1 sequence (P08254 100-264 limits assumed): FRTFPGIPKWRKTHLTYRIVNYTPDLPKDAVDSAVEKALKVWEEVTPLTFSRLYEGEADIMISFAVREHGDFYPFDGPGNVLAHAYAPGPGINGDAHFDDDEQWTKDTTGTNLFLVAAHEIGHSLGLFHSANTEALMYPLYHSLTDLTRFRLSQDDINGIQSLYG

effect on denaturation of stromelysin (Stromelysin [1]): inhibited in a dose-dependent manner
SMILES: CNC(=O)[C@H](Cc1ccc(O)cc1)NC(=O)Nc1n[nH]c(=S)s1 [PNU-143988]
effect on hyperchromicity changes (Stromelysin [2]): dose-dependent inhibition of both the rate and magnitude

SMILES: O=c1ccn([C@@H]2O[C@H](COP(=O)(O)O)[C@@H](O)[C@H]2O)c(=O)[nH]1 [UMP, uridine monophosphate]
Kd (uridylate kinase (UK)): 1 mM
Kd [3]: 5.76 ± 0.95 mM
effect on denaturation ([3]; 41° C., 96-well microplate, robotic): concentration-dependent

SMILES: Cc1cn([C@H]2C[C@H](O)[C@@H](COP(=O)(O)O)O2)c(=O)[nH]c1=O [TMP, Thymidine monophosphate]
Kd ([4]; Kd calculated from the rate constants): 7.6 ± 0.8 mM
Kd ([4]; Kd calculated from the slopes): 9.1 ± 1.6 mM
